Measurements reported in patent US10639319B2, “Human milk oligosaccharides for preventing injury and/or promoting healing of the gastrointestinal tract” (ABBOTT LABORATORIES, priority 2011, dated 2020).

System: infant fecal bacteria
Test: In vitro substrate fermentation model with infant fecal inocula, isobutyrate (BCFA) analysis (Example 78)
Format: cell-based
Conditions: for greater concentration of isobutyrate than any of the other substrates: infant fecal inoculum cultures, P<0.05

In the case of 2′-α-L-Fucopyranosyl-D-Lactose [2′-FL], the “fermentation by infant fecal bacteria” value (in vitro fermentation model) is reported as “readily fermented”, the “production of isobutyrate as compared to other substrates” value (in vitro fermentation model) is reported as “enhances” and the “greater concentration of isobutyrate than any of the other substrates” value (6 hours) is reported as “approximately 5 fold”. For the same substance, the “greater concentration of isobutyrate than any of the other substrates” value (12 hours) was about 10 fold.
